Measured values as given in US20030045563A1, “Pharmaceutical composition having reduced tendency for drug crystallization” (priority 2001, published 2003).

Experiment: Test I: turbidity (apparent absorbance at 650 nm) of drug solutions with or without test polymer
Settings: pH 7 phosphate buffer
[1] = drug 31.3 μg/ml, Dextran 65,000 0.5% w/w
[2] = drug 31.3 μg/ml, Ethylcellulose A15 0.5% w/w
[3] = drug 31.3 μg/ml, Glycerin (non-polymer) 0.5% w/w
[4] = drug 31.3 μg/ml, HPC 80,000 0.5% w/w
[5] = drug 31.3 μg/ml, HPMC E15 0.5% w/w
[6] = drug 31.3 μg/ml, Na CMC 250,000 0.5% w/w
[7] = drug 31.3 μg/ml, PEG 8,000 0.5% w/w
[8] = drug 31.3 μg/ml, PEG 20,000 0.5% w/w
[9] = drug 31.3 μg/ml, PVP 10,000 0.5% w/w
[10] = drug 31.3 μg/ml, PVP 29,000 0.5% w/w
[11] = drug 31.3 μg/ml, PVP 55,000 0.5% w/w
[12] = drug 62.5 μg/ml, Dextran 65,000 0.5% w/w
[13] = drug 62.5 μg/ml, Ethylcellulose A15 0.5% w/w
[14] = drug 62.5 μg/ml, Glycerin (non-polymer) 0.5% w/w
[15] = drug 62.5 μg/ml, HPC 80,000 0.5% w/w
[16] = drug 62.5 μg/ml, HPMC E15 0.5% w/w
[17] = drug 62.5 μg/ml, Na CMC 250,000 0.5% w/w
[18] = drug 62.5 μg/ml, PEG 8,000 0.5% w/w
[19] = drug 62.5 μg/ml, PEG 20,000 0.5% w/w
[20] = drug 62.5 μg/ml, PVP 10,000 0.5% w/w
[21] = drug 62.5 μg/ml, PVP 29,000 0.5% w/w
[22] = drug 62.5 μg/ml, PVP 55,000 0.5% w/w
[23] = drug 125 μg/ml, Dextran 65,000 0.5% w/w
[24] = drug 125 μg/ml, Ethylcellulose A15 0.5% w/w
[25] = drug 125 μg/ml, Glycerin (non-polymer) 0.5% w/w
[26] = drug 125 μg/ml, HPC 80,000 0.5% w/w
[27] = drug 125 μg/ml, HPMC E15 0.5% w/w
[28] = drug 125 μg/ml, Na CMC 250,000 0.5% w/w
[29] = drug 125 μg/ml, PEG 8,000 0.5% w/w
[30] = drug 125 μg/ml, PEG 20,000 0.5% w/w
[31] = drug 125 μg/ml, PVP 10,000 0.5% w/w
[32] = drug 125 μg/ml, PVP 29,000 0.5% w/w
[33] = drug 125 μg/ml, PVP 55,000 0.5% w/w
[34] = drug 250 μg/ml, Dextran 65,000 0.5% w/w
[35] = drug 250 μg/ml, Ethylcellulose A15 0.5% w/w
[36] = drug 250 μg/ml, Glycerin (non-polymer) 0.5% w/w
[37] = drug 250 μg/ml, HPC 80,000 0.5% w/w
[38] = drug 250 μg/ml, HPMC E15 0.5% w/w
[39] = drug 250 μg/ml, Na CMC 250,000 0.5% w/w
[40] = drug 250 μg/ml, PEG 8,000 0.5% w/w
[41] = drug 250 μg/ml, PEG 20,000 0.5% w/w
[42] = drug 250 μg/ml, PVP 10,000 0.5% w/w
[43] = drug 250 μg/ml, PVP 29,000 0.5% w/w
[44] = drug 250 μg/ml, PVP 55,000 0.5% w/w

Cc1ccc(-c2cc(C(F)(F)F)nn2-c2ccc(S(N)(=O)=O)cc2)cc1 [Celecoxib, 4-[5-(4-methylphenyl)-3-(trifluoromethyl)-1H-pyrazol-1-yl]benzenesulfonamide]
Absorbance [1]: 0.033
Absorbance [2]: 0.041
Absorbance [3]: 0.038
Absorbance [4]: 0.034
Absorbance [5]: 0.037
Absorbance [6]: 0.046
Absorbance [7]: 0.031
Absorbance [8]: 0.039
Absorbance [9]: 0.035
Absorbance [10]: 0.031
Absorbance [11]: 0.04
Absorbance (drug 31.3 μg/ml, polymer None): 0.036
Absorbance [12]: 0.076
Absorbance [13]: 0.039
Absorbance [14]: 0.07
Absorbance [15]: 0.038
Absorbance [16]: 0.039
Absorbance [17]: 0.078
Absorbance [18]: 0.169
Absorbance [19]: 0.16
Absorbance [20]: 0.041
Absorbance [21]: 0.037
Absorbance [22]: 0.049
Absorbance (drug 62.5 μg/ml, polymer None): 0.069
Absorbance [23]: 0.266
Absorbance [24]: 0.06
Absorbance (drug 125 μg/ml, Ethylcellulose A15 0.5% w/w, listed as celecoxib): reduced turbidity
Absorbance [25]: 0.184
Absorbance [26]: 0.05
Absorbance (drug 125 μg/ml, HPC 80,000 0.5% w/w, listed as celecoxib): reduced turbidity
Absorbance [27]: 0.049
Absorbance (drug 125 μg/ml, HPMC E15 0.5% w/w, listed as celecoxib): reduced turbidity
Absorbance [28]: 0.083
Absorbance (drug 125 μg/ml, Na CMC 250,000 0.5% w/w, listed as celecoxib): reduced turbidity
Absorbance [29]: 0.308
Absorbance [30]: 0.342
Absorbance [31]: 0.072
Absorbance (drug 125 μg/ml, PVP 10,000 0.5% w/w, listed as celecoxib): reduced turbidity
Absorbance [32]: 0.064
Absorbance (drug 125 μg/ml, PVP 29,000 0.5% w/w, listed as celecoxib): reduced turbidity
Absorbance [33]: 0.048
Absorbance (drug 125 μg/ml, PVP 55,000 0.5% w/w, listed as celecoxib): reduced turbidity
Absorbance (drug 125 μg/ml, polymer None): 0.146
Absorbance [34]: 0.379
Absorbance [35]: 0.085
Absorbance (drug 250 μg/ml, Ethylcellulose A15 0.5% w/w, listed as celecoxib): reduced turbidity
Absorbance [36]: 0.41
Absorbance [37]: 0.11
Absorbance (drug 250 μg/ml, HPC 80,000 0.5% w/w, listed as celecoxib): reduced turbidity
Absorbance [38]: 0.093
Absorbance (drug 250 μg/ml, HPMC E15 0.5% w/w, listed as celecoxib): reduced turbidity
Absorbance [39]: 0.148
Absorbance (drug 250 μg/ml, Na CMC 250,000 0.5% w/w, listed as celecoxib): reduced turbidity
Absorbance [40]: 0.485
Absorbance [41]: 0.654
Absorbance [42]: 0.2
Absorbance (drug 250 μg/ml, PVP 10,000 0.5% w/w, listed as celecoxib): reduced turbidity
Absorbance [43]: 0.118
Absorbance (drug 250 μg/ml, PVP 29,000 0.5% w/w, listed as celecoxib): reduced turbidity
Absorbance [44]: 0.105
Absorbance (drug 250 μg/ml, PVP 55,000 0.5% w/w, listed as celecoxib): reduced turbidity
Absorbance (drug 250 μg/ml, polymer None): 0.376

Cc1onc(-c2ccccc2)c1-c1ccc(S(N)(=O)=O)cc1 [Valdecoxib, 4-[5-methyl-3-phenylisoxazol-4-yl]benzenesulfonamide]
Absorbance [1]: 0.03
Absorbance [2]: 0.033
Absorbance [3]: 0.03
Absorbance [4]: 0.031
Absorbance [5]: 0.032
Absorbance [6]: 0.03
Absorbance [7]: 0.03
Absorbance [8]: 0.031
Absorbance [9]: 0.032
Absorbance [10]: 0.03
Absorbance [11]: 0.032
Absorbance (drug 31.3 μg/ml, polymer None): 0.031
Absorbance [12]: 0.031
Absorbance [13]: 0.033
Absorbance [14]: 0.028
Absorbance [15]: 0.032
Absorbance [16]: 0.034
Absorbance [17]: 0.036
Absorbance [18]: 0.03
Absorbance [19]: 0.031
Absorbance [20]: 0.034
Absorbance [21]: 0.03
Absorbance [22]: 0.031
Absorbance (drug 62.5 μg/ml, polymer None): 0.029
Absorbance [23]: 0.033
Absorbance [24]: 0.033
Absorbance [25]: 0.029
Absorbance [26]: 0.046
Absorbance [27]: 0.034
Absorbance [28]: 0.09
Absorbance [29]: 0.03
Absorbance [30]: 0.031
Absorbance [31]: 0.032
Absorbance [32]: 0.032
Absorbance [33]: 0.032
Absorbance (drug 125 μg/ml, polymer None): 0.029
Absorbance [34]: 0.289
Absorbance [35]: 0.052
Absorbance (drug 250 μg/ml, Ethylcellulose A15 0.5% w/w, listed as valdecoxib): reduced turbidity
Absorbance [36]: 0.229
Absorbance [37]: 0.093
Absorbance (drug 250 μg/ml, HPC 80,000 0.5% w/w, listed as valdecoxib): reduced turbidity
Absorbance [38]: 0.064
Absorbance (drug 250 μg/ml, HPMC E15 0.5% w/w, listed as valdecoxib): reduced turbidity
Absorbance [39]: 0.174
Absorbance (drug 250 μg/ml, Na CMC 250,000 0.5% w/w, listed as valdecoxib): reduced turbidity
Absorbance [40]: 0.345
Absorbance [41]: 0.433
Absorbance [42]: 0.321
Absorbance [43]: 0.183
Absorbance (drug 250 μg/ml, PVP 29,000 0.5% w/w, listed as valdecoxib): reduced turbidity
Absorbance [44]: 0.162
Absorbance (drug 250 μg/ml, PVP 55,000 0.5% w/w, listed as valdecoxib): reduced turbidity
Absorbance (drug 250 μg/ml, polymer None): 0.185
